Source: patent publication US5773228A, “Activation-dependent protein expressed on the surface of activated platelets and antibodies thereto” (The General Hospital Corporation, priority 1995, dated 1998)

System: platelets (TAPP-2 expression)
Assay: Expression of TAPP-2 on platelets stimulated by different agonists (binding of 125I-MAb 12A7)
Type: cell-based, rabbit
Details: compared to resting platelets, 10 minutes at room temperature
Method: Platelets were incubated with various agonists, with or without Ca^2+ or EDTA and then fixed by paraformaldehyde. The fixed platelets were washed and incubated with ^125 I-MAb 12A7 (50,000 cpm), with or without unlabeled MAb 12A7 (0.5 ug) added as an inhibitor to estimate nonspecific binding. After 45 min. the platelet samples were again washed, spun, and aspirated. The platelet pellet was counted to determine the amount of bound MAb 12A7.
Equilibrium saturation binding studies were conducted in a similar manner. Platelets activated by thrombin (0.15 U/ml) were incubated in duplicate with various amounts of ^125 I-MAb 12A7 (1,000,000 to 6,250 cpm) in a total volume of 200 μl. Each tube also contained a molar excess (>100-fold) of a control, anti-digoxin MAb, of the same isotype (Mudgett-Hunter et al., Mol. Immunol. 22:477-488 (1985)), which was added to inhibit nonspecific binding of ^125 I-MAb 12A7 to platelets via Fc receptors. To estimate nonspecific binding, a molar excess (>100-fold) of nonradioactive MAb 12A7 was added to one set of tubes. After incubation for 45 minutes at room temperature 2 ml of cold Tyrode's buffer was added, the tubes were centrifuged at 3000 ×g for 10 minutes and the unbound ^125 I-12A7 MAb was removed. The bound antibody was measured by gamma counting in Micro-Medics 4/600 counter. To study the binding of MAb 12A7 to resting platelets a similar procedure was performed except that the number of platelets had to be increased to 1.29×10^8 cells in a total incubation volume of 400 μl. The platelets were incubated with various amounts of MAb 12A7 (2,000,000 to 25,000 cpm) as above. The binding data was analyzed by the Ligand program of Munson and Rodbard, Anal. Biochem. 107:220-239 (1980)). […] The binding of 12A7 to platelets stimulated by different agonists was also studied. Platelets were isolated as described above. Platelets (5×10^6 cells/40 Kl) in modified Tyrode's (without divalent cations) were added to plastic tubes. […] After 45 minutes the platelet samples were again washed, spun, aspirated and gamma-counted.

## CNc1ccc2oc(C[C@H]3O[C@@]4(CC[C@H]3C)O[C@H]([C@H](C)C(=O)c3ccc[nH]3)[C@H](C)C[C@H]4C)nc2c1C(=O)O [A23187]
A23187 2 μM
  TAPP-2 expression as indicated by the binding of 125I-MAb 12A7: notable increase

## Nc1ncnc2c1ncn2[C@@H]1O[C@H](COP(=O)(O)OP(=O)(O)O)[C@@H](O)[C@H]1O [ADP]
ADP 10 μM
  TAPP-2 expression as indicated by the binding of 125I-MAb 12A7: notable increase

## CNC[C@H](O)c1ccc(O)c(O)c1 [epinephrine]
Epinephrine 2 μM
  TAPP-2 expression as indicated by the binding of 125I-MAb 12A7: little, if any, effect
